{"source": "patent EP0591378B1", "about": "“METHOD OF PREVENTING AND TREATING CHEMOTHERAPY-INDUCED ALOPECIA” (Hairbiotech, Inc., priority 1991, dated 1993)", "key": {"hair growth [1]": {"system": "hair growth", "assay": "Stimulation of hair regrowth on the shaven back of rats", "assay_type": "in vivo, Sprague Dawley rats", "description": "The backs of nineteen 25 day old Sprague Dawley rats were shaven and randomized in two groups.\nGroup I (control 10 rats) received 0.1 ml of ethanol applied topically once daily to the shaven area for 14 days.\nGroup II (Calcitriol 9 rats) received 50 ng of 1,25-dihydroxyvitamin D3 in 0.1 ml of ethanol applied topically once daily to the shaven area for 14 days.\nOn day 15 stimulation of hair regrowth was assessed by reshaving an area 6 cm x 6 cm in diameter. The hair was collected and weighed. The difference between two groups was highly statistically significant. P. value 0.003 (see Table III and Figure 11)."}, "[2]": {"system": "EGF receptors on breast cancer cells", "conditions": "cited from earlier work"}, "[3]": {"system": "EGF receptors on a cell line established from rat calvaria", "conditions": "cited from earlier work"}, "hair growth [4]": {"system": "hair growth", "assay": "Stimulation of hair regrowth on the shaven back of rats", "assay_type": "in vivo, Sprague Dawley rats", "conditions": "observation in treated rats during the chemotherapy-induced alopecia studies"}, "VP-16-induced alopecia": {"system": "VP-16-induced alopecia", "assay": "VP-16 (Etoposide)-induced alopecia in young rats", "assay_type": "in vivo", "description": "Twelve 7 day old rats were randomized in two groups. Group I was treated daily with buffer 0.1 ml s.c. for four days. The second Group was treated daily with Vitamin D3 50µg s.c. over head for four days. After stopping the buffer or Vitamin D3 treatment, all rats received 1.5 mg/kg i.p. of VP-16 (Etoposide) daily for three days.\n(§1) Topical Application of 1,25-dihydroxyvitamin D3: • 1,25-Dihydroxyvitamin D3 was dissolved in absolute ethanol and applied topically with an applicator. Control animals were similarly treated with the same amount of ethanol. Animals were then kept individually separated for a period of three hours following which the treated area was carefully washed with soap and water and dried. Treatment was given daily beginning on day 5 after birth and ending on day 10.\nChemotherapy: • All chemotherapies were given I.P. and started at 11 days of age. CTX, 35 mg/kg, was given for one day only. VP-16, 1.5 mg/kg, was given for three days. For CTX and ADM combination, CTX, 25 mg/kg was given for one day and ADM, 2.5 mg/kg, for three days. […] Alopecia was recorded on the tenth day from beginning chemotherapy.\nA total of 4 experiments were carried out. In the first experiment, protection from Cytoxan-induced alopecia was examined. The experimental group was pretreated with 0.2 µg of 1,25-dihydroxyvitamin D, in 0.15 ml of absolute ethanol applied topically over the head and neck and the control group received 0.15 ml of alcohol. […] The second experiment was carried out under similar conditions to examine protection from VP-16-induced alopecia. […] The third experiment was designed to examine protection from alopecia induced by Cytoxan-Adriamycin combination. There were 11 rats in each group. […] In the fourth experiment, protection from VP-16-induced alopecia was similarly examined except that the dose of 1,25-dihydroxyvitamin D3 was reduced to 0.1 µg in 0.1 ml absolute ethanol applied topically over the head area only.\nas §1, with “RO 23-7553 (1,25 dihydroxy-16-ene-23-yne-cholecalciferol)” for “Topical Application of 1,25-dihydroxyvitamin D3: • 1,25-Dihydroxyvitamin D3”, “9” for “5”, “14.” for “10.”\nOn day 15 all animals received VP-16, 1.5 mg/kg i.p., for three days. Alopecia was recorded on day 25.\nThirteen rats were randomized in two groups. Experimental group, 7 rats; control group, 6 rats. The experimental group was pretreated with 1 µg of RO 23-7553 in 0.2 ml absolute ethanol applied topically over the neck and back and the control group received 0.2 ml of absolute ethanol."}, "Cytoxan-induced alopecia": {"system": "Cytoxan-induced alopecia", "assay": "Cytoxan-induced alopecia in young rats", "assay_type": "in vivo"}, "[5]": {"system": "Cytoxan/Adriamycin-Induced Alopecia", "assay": "Alopecia induced by Cytoxan/Adriamycin combination in young rats", "assay_type": "in vivo, Sprague Dawley rats", "description": "Eight 4-day old Sprague Dawley rats were randomized in two groups of 4 rats each. […] Group II received buffer injections and served as controls. One day after stopping EGF or buffer injections all rats received Cytoxan 25 mg/kg i.p. x 1 day and Adriamycin 2.5 mg/kg i.p. x 3 days. In Group II, all rats had 3+ alopecia over head and neck area. In contrast, in Group I one rat had mild alopecia, one rat minimal alopecia, and two rats no detectable alopecia over head and neck. (FIGURE 5).\nas §1\nChemotherapy: • All chemotherapies were given I.P. and started at 11 days of age. CTX, 35 mg/kg, was given for one day only. VP-16, 1.5 mg/kg, was given for three days. For CTX and ADM combination, CTX, 25 mg/kg was given for one day and ADM, 2.5 mg/kg, for three days. At these doses neither CTX nor ADM alone will produce alopecia. Alopecia was recorded on the tenth day from beginning chemotherapy.\nA total of 4 experiments were carried out. […]"}, "ARA-C-induced alopecia": {"system": "ARA-C-induced alopecia", "assay": "ARA-C-induced alopecia in young rats", "assay_type": "in vivo, Sprague Dawley rats", "conditions": "Alopecic drug Cytarabine (ARA-C) 50 mg/kg i.p. daily for 7 days, 50 µg daily i.p. or s.c. for 4 days prior to chemotherapy, 1 experiment, 8 animals, uniformly observed in all treated animals", "description": "Sprague Dawley rats were purchased from Charles River Laboratories, Wilmington, MA. Cytosar-U (ARA-C) was from the Upjohn Company, Kalamazoo, MI. Receptor grade EGF from mouse submaxillary glands, human recombinant EGF, dimethyl sulfoxide (DMSO) and Vitamin D3 were purchased from Sigma Chemical Co., St. Louis, MO. aFGF was purchased from AMGEN Corp., Thousand Oaks, CA.\nAll rats from each experiment were treated with ARA-C 50 mg/kg intraperitoneally (i.p.) daily for 7 days. For subcutaneous (s.c.) injections, EGF and FGF were prepared in PBS 1% BSA. Alopecia was always recorded on day 12 of experiment, and scored as previously described (Hussein et al, Science, 249:1564-1566, 1990; Jimenez et al, FASEB J., 1991).\nFor topical treatment, murine EGF was prepared as follows: One vial of EGF (100 µg) was dissolved in 0.2 ml of PBS 1% BSA and 0.12 ml of this solution was added to 0.48 of DMSO. Three hours prior to ARA-C injection, 0.1 ml of the EGF-DMSO mixture was applied to each rat over a 1 cm^2 area between the shoulders using a rubber tip applicator. Rats were then kept individually separated for a period of three hours, following which the treated area was carefully washed with soap and water and dried. Treatment was continued for 7 days. […]\nFourteen 7-day old rats were randomized in two groups. […] Alopecia was recorded on day 12 of experiment. […]"}}, "note": "Several values for one entry are separate records, joined by “and”; a condition that tells them apart may be missing. Equal entries are not always repeated. Entries after “also recorded” stand apart in the source; their conditions may differ.", "data": [{"smiles": "C=C1/C(=C\\C=C2/CCC[C@]3(C)[C@@H]([C@H](C)CCCC(C)(C)O)CC[C@@H]23)C[C@@H](O)C[C@@H]1O", "note": "[1,25-dihydroxyvitamin D3]", "values": [{"measurement": "Hair Weight, Mean S.E.M.", "setting": "hair growth [1]; 50 ng in 0.1 ml ethanol topically once daily for 14 days, 9 rats, day 15, P. value 0.003 versus control (113 ± 8)", "result": "164 ± 13", "unit": "Mg."}, {"measurement": "Hair Weight (individual rats)", "setting": "hair growth [1]; 50 ng in 0.1 ml ethanol topically once daily to the shaven area for 14 days, reshaved area 6 cm x 6 cm on day 15, listed as Calcitriol", "result": "135 Mg. and 202 Mg. and 143 Mg. and 150 Mg. and 253 Mg. and 130 Mg. and 177 Mg. and 140 Mg. and 147 Mg."}, {"measurement": "effect on EGF receptors on breast cancer cells", "setting": "[2]", "result": "increase"}, {"measurement": "effect on EGF receptors on a cell line established from rat calvaria", "setting": "[3]", "result": "increase"}, {"measurement": "coat of hair and hair length in the treated area", "setting": "hair growth [4]", "result": "better coat of hair and longer hair in the treated area"}, {"measurement": "protection from VP-16-induced alopecia", "setting": "VP-16-induced alopecia; applied topically 0.5 µg daily in 50% ethanol or DMSO", "result": "protected"}, {"measurement": "protection from VP-16-induced alopecia", "setting": "VP-16-induced alopecia; pretreatment 0.1 µg in 0.1 ml absolute ethanol topically over the head area only, VP-16 1.5 mg/kg I.P. for three days, all rats", "result": "protected primarily at the site of 1,25-dihydroxyvitamin D3 application; also recorded: less generalized and was more limited to the site of application"}, {"measurement": "protection from VP-16-induced alopecia", "setting": "VP-16-induced alopecia; pretreatment 0.2 µg in 0.15 ml absolute ethanol topically over head and neck, VP-16 1.5 mg/kg I.P. for three days, recorded on tenth day, all rats", "result": "protected; also recorded: not limited to the site of application but involved the entire body"}, {"measurement": "protection from Cytoxan-induced alopecia", "setting": "Cytoxan-induced alopecia; pretreatment 0.2 µg in 0.15 ml absolute ethanol topically over head and neck, day 5 to day 10 after birth, CTX 35 mg/kg I.P. one day, recorded on tenth day, all animals", "result": "protected"}, {"measurement": "protection from alopecia induced by Cytoxan-Adriamycin combination", "setting": "[5]; pretreatment 0.2 µg in 0.15 ml absolute ethanol topically over head and neck, CTX 25 mg/kg one day and ADM 2.5 mg/kg three days I.P., 11 rats, all rats", "result": "protected"}]}, {"smiles": "C=C1/C(=C\\C=C2/CCC[C@]3(C)C([C@H](C)CC#CC(C)(C)O)=CC[C@@H]23)C[C@@H](O)C[C@@H]1O", "note": "[RO 23-7553, 1,25 dihydroxy-16-ene-23-yne-cholecalciferol]", "values": [{"measurement": "protection from VP-16-induced alopecia", "setting": "VP-16-induced alopecia; pretreatment 1 µg in 0.2 ml absolute ethanol topically over neck and back, day 9 to day 14 after birth, VP-16 1.5 mg/kg i.p. three days from day 15, recorded on day 25, 7 rats, all animals", "result": "protected"}]}, {"smiles": "C=C1CC[C@H](O)C/C1=C/C=C1\\CCC[C@]2(C)[C@@H]([C@H](C)CCCC(C)C)CC[C@@H]12", "note": "[Vitamin D3]", "values": [{"measurement": "Protection from alopecia", "setting": "ARA-C-induced alopecia", "result": "excellent protection and Yes*"}, {"measurement": "Protection from alopecia", "setting": "VP-16-induced alopecia; 50µg s.c. over head daily for four days, then VP-16 1.5 mg/kg i.p. daily for three days, 7 day old rats", "result": "protected"}, {"measurement": "Protection from alopecia", "setting": "VP-16-induced alopecia; Alopecic drug Etoposide (VP-16) 1.5 mg/kg i.p. daily for 3 days, 50 µg daily i.p. or s.c. for 4 days prior to chemotherapy, 2 experiments, 22 animals, uniformly observed in all treated animals", "result": "excellent protection and Yes*"}, {"measurement": "Protection from alopecia", "setting": "Cytoxan-induced alopecia; Alopecic drug Cytoxan (CTX) 32.5 mg/kg single injection, 50 µg daily i.p. or s.c. for 4 days prior to chemotherapy, 7 experiments, 89 animals, uniformly observed in all treated animals, 32.5 mg/kg", "result": "excellent protection and Yes*"}, {"measurement": "Protection from alopecia", "setting": "[5]; Adriamycin 2.5 mg/kg i.p. daily for 3 days plus Cytoxan 25 mg/kg single injection, 50 µg daily i.p. or s.c. for 4 days prior to chemotherapy, 6 experiments, 77 animals, uniformly observed in all treated animals", "result": "excellent protection and Yes*"}]}]}
